# Laboratory results taken from patent publication US7838674B2, “Tetracyclic lactame derivatives” (Novartis AG, priority 2007, dated 2010).
# Structures can show the parent of a compound that is named as a salt.
# Target: T1, MAPKAPK2 enzyme (HIS-MK2, Invitrogen PV4019) (Homo sapiens, UniProt P49137)
# T1 construct: His; purchased Invitrogen PV4019
# Assay: Alternative MAPKAPK2 assay (Caliper microfluidic mobility shift, HSP27-peptide)
# Format: biochemical
# Conditions: HIS-MK2 0.013 nM, ATP 10 μM, 60 min at 30° C.
# T1 sequence (P49137 whole entry): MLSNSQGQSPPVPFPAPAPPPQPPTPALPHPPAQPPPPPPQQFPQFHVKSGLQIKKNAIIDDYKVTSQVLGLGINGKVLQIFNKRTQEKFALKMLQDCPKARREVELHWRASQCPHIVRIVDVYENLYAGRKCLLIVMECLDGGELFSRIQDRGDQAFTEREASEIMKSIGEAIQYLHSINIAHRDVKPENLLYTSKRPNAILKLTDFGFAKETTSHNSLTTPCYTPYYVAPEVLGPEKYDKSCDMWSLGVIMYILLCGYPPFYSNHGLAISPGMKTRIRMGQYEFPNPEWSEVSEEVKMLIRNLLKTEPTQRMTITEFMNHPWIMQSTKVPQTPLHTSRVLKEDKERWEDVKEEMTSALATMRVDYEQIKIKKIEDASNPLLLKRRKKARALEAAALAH
row,IC50 [nM],SMILES
1,21,"COc1ccc(-c2cc3c(cn2)CCc2c-3[nH]c3c2C(=O)N[C@@H]2CC[C@H]32)cc1 (racemic) [Example 50, (+)-2-(2-Amino-cyclobutyl)-8-(4-methoxy-phenyl)-4,5-dihydro-1H-pyrrolo[2,3-f]isoquinoline-3-carboxylic acid lactam]"
2,35,"COc1ccc(-c2cc3c(cn2)CCc2c-3[nH]c3c2C(=O)N[C@@H]2C[C@H]32)cc1 (racemic) [Example 52, (+)-2-(2-Amino-cyclopropyl)-8-(4-methoxy-phenyl)-4,5-dihydro-1H-1,7-diaza-cyclopenta[a]naphthalene-3-carboxylic acid lactam]"
3,28,"O=C1NC2CCC2c2[nH]c3c(c21)CCc1cnc(-c2cccc(F)c2)cc1-3 (single isomer, unassigned; (+)) [Example 51, (+)-2-(2-Amino-cyclobutyl)-8-(3-fluoro-phenyl)-4,5-dihydro-1H-pyrrolo[2,3-f]isoquinoline-3-carboxylic acid lactam]"
4,20,"COc1ccc(-c2cc3c(cn2)CCc2c4c(n(C)c2-3)CC2(CNC2)NC4=O)cc1 [Example 38, 2-(3-Amino-azetidin-3-ylmethyl)-8-(4-methoxy-phenyl)-1-methyl-4,5-dihydro-1H-pyrrolo[2,3-f]isoquinoline-3-carboxylic acid lactam hydrochloride]"
5,21,"COc1ccc(-c2cc3c(cn2)CCc2c-3oc3c2C(=O)NC2(CNC2)C3)cc1 [Example 41, 2-(3-Amino-azetidin-3-ylmethyl)-8-(4-methoxy-phenyl)-4,5-dihydro-furo[2,3-f]isoquinoline-3-carboxylic acid lactam hydrochloride]"
6,22,"COc1ccc(-c2cc3c(cn2)CCc2c-3[nH]c3c2C(=O)NCC32CC2)cn1 [Example 54, 2-(1-Aminomethyl-cyclopropyl)-8-(6-methoxy-pyridin-3-yl)-4,5-dihydro-1H-pyrrolo[2,3-f]isoquinoline-3-carboxylic acid lactam]"
7,11,"COc1cncc(-c2cc3c(cn2)CCc2c-3[nH]c3c2C(=O)NCC32CC2)c1 [Example 55, 2-(1-Aminomethyl-cyclopropyl)-8-(5-methoxy-pyridin-3-yl)-4,5-dihydro-1H-pyrrolo[2,3-f]isoquinoline-3-carboxylic acid lactam]"
8,13,"CCOc1ccc(-c2ncc3c(n2)-c2c(c4c(n2C)CC2(CNC2)NC4=O)CC3)cc1 [Example 59, 2-(3-Amino-azetidin-3-ylmethyl)-8-(4-ethoxyphenyl)-1-methyl-4,5-dihydro-1H-1,7,9-triaza-cyclopenta[a]naphthalene-3-carboxylic acid lactam hydrochloride]"
9,75,"N#Cc1ccc(-c2cc3c(cn2)CCc2c-3[nH]c3c2C(=O)NC2(CC2)C3)cc1 [Example 60, 2-(1-Amino-cyclopropylmethyl)-8-(4-cyano-phenyl)-4,5-dihydro-1H-pyrrolo[2,3-f]isoquinoline-3-carboxylic acid lactam]"
10,89,"N#Cc1ccc(-c2cc3c(cn2)CCc2c-3[nH]c3c2C(=O)NC2(CC2)C3)cn1 [Example 63, 2-(1-Amino-cyclopropylmethyl)-8-(6-cyano-pyridin-3-yl)-4,5-dihydro-1H-pyrrolo[2,3-f]isoquinoline-3-carboxylic acid lactam]"
11,46,"O=C1NC2(CC2)Cc2[nH]c3c(c21)CCc1cnc(-c2ccc(CN4CCCCC4)cc2)cc1-3 [Example 65, 2-(1-Amino-cyclopropylmethyl)-8-(4-piperidin-1-ylmethyl-phenyl)-4,5-dihydro-1H-pyrrolo[2,3-f]isoquinoline-3-carboxylic acid lactam]"
12,60,"O=C1NC2(CC2)Cc2[nH]c3c(c21)CCc1cnc(-c2ccc4c(c2)OCCO4)cc1-3 [Example 66, 2-(1-Amino-cyclopropylmethyl)-8-(2,3-dihydro-benzo[1,4]dioxin-6-yl)-4,5-dihydro-1H-pyrrolo[2,3-f]isoquinoline-3-carboxylic acid lactam]"
13,49,"CN(C)c1ccc(-c2cc3c(cn2)CCc2c-3[nH]c3c2C(=O)NC2(CC2)C3)cn1 [Example 68, 2-(1-Amino-cyclopropylmethyl)-8-6-dimethylamino-pyridin-3-yl-4,5-dihydro-1H-pyrrolo[2,3-f]isoquinoline-3-carboxylic acid lactam]"
14,35,"Cc1ccc(-c2cc3c(cn2)CCc2c-3[nH]c3c2C(=O)NC2(CC2)C3)cn1 [Example 69, 2-(1-Amino-cyclopropylmethyl)-8-(6-methyl-pyridin-3-yl)-4,5-dihydro-1H-pyrrolo[2,3-f]isoquinoline-3-carboxylic acid lactam]"
15,98,"C#Cc1cc(-c2cc3c(cn2)CCc2c-3[nH]c3c2C(=O)NC2(CC2)C3)ccc1OC [Example 75, 2-(1-Amino-cyclopropylmethyl)-8-(3-ethynyl-4-methoxy-phenyl)-4,5-dihydro-1H-pyrrolo[2,3-f]isoquinoline-3-carboxylic acid lactam]"
16,85,"CC(C)(O)CCc1ccc(-c2cc3c(cn2)CCc2c-3[nH]c3c2C(=O)NC2(CC2)C3)cc1 [Example 77, 2-(1-Amino-cyclopropylmethyl)-8-[4-(3-hydroxy-3-methyl-butyl)-phenyl]-4,5-dihydro-1H-pyrrolo[2,3-f]isoquinoline-3-carboxylic acid lactam]"
17,18,"CC(C)(N)CCc1ccc(-c2cc3c(cn2)CCc2c-3[nH]c3c2C(=O)NC2(CC2)C3)cc1 [Example 78, 2-(1-Amino-cyclopropylmethyl)-8-[4-(3-amino-3-methyl-butyl)-phenyl]-4,5-dihydro-1H-pyrrolo[2,3-f]isoquinoline-3-carboxylic acid lactam]"

row,IC50 [nM],SMILES
1,24,"CC(C)(N)C#Cc1ccc(-c2cc3c(cn2)CCc2c-3[nH]c3c2C(=O)NC2(CC2)C3)cc1 [Example 82, 2-(1-Amino-cyclopropylmethyl)-8-[4-(3-amino-3-methyl-but-1-ynyl)-phenyl]-4,5-dihydro-1H-pyrrolo[2,3-f]isoquinoline-3-carboxylic acid lactam]"
2,98,"Nc1ccc(-c2cc3c(cn2)CCc2c-3[nH]c3c2C(=O)NC2(CCC2)C3)cn1 [Example 101, 2-(1-Amino-cyclobutylmethyl)-8-(6-amino-pyridin-3-yl)-4,5-dihydro-1H-pyrrolo[2,3-f]isoquinoline-3-carboxylic acid lactam]"
3,62,"Cc1cncc(-c2cc3c(cn2)CCc2c-3[nH]c3c2C(=O)NC2(CCC2)C3)c1 [Example 102, 2-(1-Amino-cyclobutylmethyl)-8-(5-methyl-pyridin-3-yl)-4,5-dihydro-1H-pyrrolo[2,3-f]isoquinoline-3-carboxylic acid lactam]"
4,67,"O=C1NC2(CCC2)Cc2[nH]c3c(c21)CCc1cnc(-c2cccnc2)cc1-3 [Example 104, 2-(1-Amino-cyclobutylmethyl)-8-pyridin-3-yl-4,5-dihydro-1H-pyrrolo[2,3-f]isoquinoline-3-carboxylic acid lactam]"
5,5,"Cc1ccc(-c2cc3c(cn2)CCc2c-3[nH]c3c2C(=O)NCC32CC2)cn1 [Example 111, 2-(1-Aminomethyl-cyclopropyl)-8-(6-methyl-pyridin-3-yl)-4,5-dihydro-1H-pyrrolo[2,3-f]isoquinoline-3-carboxylic acid lactam]"
6,9,"O=C1NCC2(CC2)c2[nH]c3c(c21)CCc1cnc(-c2cncc(F)c2)cc1-3 [Example 112, 2-(1-Aminomethyl-cyclopropyl)-8-(5-fluoro-pyridin-3-yl)-4,5-dihydro-1H-pyrrolo[2,3-f]isoquinoline-3-carboxylic acid lactam]"
7,23,"N#Cc1cncc(-c2cc3c(cn2)CCc2c-3[nH]c3c2C(=O)NCC32CC2)c1 [Example 113, 2-(1-Aminomethyl-cyclopropyl)-8-(5-cyano-pyridin-3-yl)-4,5-dihydro-1H-pyrrolo[2,3-f]isoquinoline-3-carboxylic acid lactam]"
8,41,O=C1NCC2(CC2)c2[nH]c3c(c21)CCc1cnc(-c2ccc4c(c2)OCCO4)cc1-3 [Example 114]
9,36,N#Cc1cc(-c2cc3c(cn2)CCc2c-3[nH]c3c2C(=O)NCC32CC2)ccc1F [Example 115]
10,19,CN(C)c1ccc(-c2cc3c(cn2)CCc2c-3[nH]c3c2C(=O)NCC32CC2)cn1 [Example 117]
11,16,"CC(C)(N)CCc1ccc(-c2cc3c(cn2)CCc2c-3[nH]c3c2C(=O)NCC32CC2)cc1 [Example 118, 8-[4-(3-Amino-3-methyl-butyl)-phenyl]-2-(1-aminomethyl-cyclopropyl)-4,5-dihydro-1H-pyrrolo[2,3-f]isoquinoline-3-carboxylic acid lactam]"
12,89,CC(C)(O)C#Cc1ccc(-c2cc3c(cn2)CCc2c-3[nH]c3c2C(=O)NCC32CC2)cc1 [Example 119]
13,40,"C#Cc1cc(-c2cc3c(cn2)CCc2c-3[nH]c3c2C(=O)NCC32CC2)ccc1OC [Example 120, 2-(1-Aminomethyl-cyclopropyl)-8-(3-ethynyl-4-methoxy-phenyl)-4,5-dihydro-1H-pyrrolo[2,3-f]isoquinoline-3-carboxylic acid lactam]"
14,30,"O=C1NCC2(CC2)c2[nH]c3c(c21)CCc1cnc(-c2cncnc2)cc1-3 [Example 123, 2-(1-Aminomethyl-cyclopropyl)-8-pyrimidin-5-yl-4,5-dihydro-1H-pyrrolo[2,3f]isoquinoline-3-carboxylic acid lactam]"
15,55,"O=C1NCC2(CC2)c2[nH]c3c(c21)CCc1cnc(-c2ccncc2)cc1-3 [Example 124, 2-(1-Aminomethyl-cyclopropyl)-8-pyridin-4-yl-4,5-dihydro-1H-pyrrolo[2,3-f]isoquinoline-3-carboxylic acid lactam]"
16,16,"O=C1NCC2(CC2)c2[nH]c3c(c21)CCc1cnc(-c2cccnc2)cc1-3 [Example 125, 2-(1-Aminomethyl-cyclopropyl)-8-pyridin-3-yl-4,5-dihydro-1H-pyrrolo[2,3-f]isoquinoline-3-carboxylic acid lactam]"
17,34,"CC(C)(O)CCc1ccc(-c2cc3c(cn2)CCc2c-3[nH]c3c2C(=O)NCC32CC2)cc1 [Example 126, 2-(1-Aminomethyl-cyclopropyl)-8-[4-(3-hydroxy-3-methyl-butyl)-phenyl]-4,5-dihydro-1H-pyrrolo[2,3-f]isoquinoline-3-carboxylic acid lactam]"
